Laboratory results from publication PMC7156458, “Synthetic biology based construction of biological activity-related library of fungal decalin-containing diterpenoid pyrones” (Nature Communications, 2020).

Biological target: Aβ42 (Homo sapiens, UniProt P05067)
Assay: Th-T (thioflavin-T) assay of Aβ42 aggregation
Format: biochemical
Conditions: for Th-T fluorescence, mean of three wells: Aβ42 aggregation time course

Sequence of Aβ42 (P05067 672-713): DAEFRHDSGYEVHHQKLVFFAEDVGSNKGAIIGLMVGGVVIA

## C=C1CCC2C(C)(CCC=C(C)C)C(O)CCC2(C)C1Cc1c(OC)oc(C)c(C(=O)OC)c1=O (stereo not drawn) [Compound 14]
  delay of the nucleation phase: no delay
  elongation of Aβ42: partly suppressed the elongation of Aβ42
Aβ42 (10 μM) ± DPPs (20 μM), room temperature
  first Th-T assay result: suppressed Aβ42
Reading M117
  Th-T fluorescence, mean of three wells: 1.655
Reading M118
  Th-T fluorescence, mean of three wells: 1.6572
Reading M119
  Th-T fluorescence, mean of three wells: 1.678
Reading M120
  Th-T fluorescence, mean of three wells: 1.679
Reading M121
  Th-T fluorescence, mean of three wells: 1.668
Reading M122
  Th-T fluorescence, mean of three wells: 1.683
Reading M123
  Th-T fluorescence, mean of three wells: 1.681
Reading M124
  Th-T fluorescence, mean of three wells: 1.6777
Reading M125
  Th-T fluorescence, mean of three wells: 1.687
Reading M126
  Th-T fluorescence, mean of three wells: 1.688
Reading M127
  Th-T fluorescence, mean of three wells: 1.689
Reading M128
  Th-T fluorescence, mean of three wells: 1.7014
Reading M129
  Th-T fluorescence, mean of three wells: 1.701
Reading M130
  Th-T fluorescence, mean of three wells: 1.6991
Column suffix _10, measurement M19
  Th-T fluorescence, mean of three wells (Fig. 7a): 1.991
Column suffix _10, measurement M20
  Th-T fluorescence, mean of three wells (Fig. 7a): 2.087
Column suffix _10, measurement M21
  Th-T fluorescence, mean of three wells (Fig. 7a): 2.17
Column suffix _10, measurement M22
  Th-T fluorescence, mean of three wells (Fig. 7a): 2.206
Column suffix _10, measurement M23
  Th-T fluorescence, mean of three wells (Fig. 7a): 2.232
Column suffix _10, measurement M24
  Th-T fluorescence, mean of three wells (Fig. 7a): 2.258
Column suffix _10, measurement M25
  Th-T fluorescence, mean of three wells (Fig. 7a): 2.291
Column suffix _10, measurement M26
  Th-T fluorescence, mean of three wells (Fig. 7a): 2.3072
Column suffix _10, measurement M27
  Th-T fluorescence, mean of three wells (Fig. 7a): 2.333
Column suffix _10, measurement M28
  Th-T fluorescence, mean of three wells (Fig. 7a): 2.3263
Column suffix _10, measurement M29
  Th-T fluorescence, mean of three wells (Fig. 7a): 2.338
Column suffix _10, measurement M30
  Th-T fluorescence, mean of three wells (Fig. 7a): 2.363
Column suffix _10, reading M1
  Th-T assay signal, mean of three wells (Fig. 7a): 0.2293
Column suffix _10, reading M2
  Th-T assay signal, mean of three wells (Fig. 7a): 0.2207
Column suffix _10, reading M3
  Th-T assay signal, mean of three wells (Fig. 7a): 0.2333
Column suffix _10, reading M4
  Th-T assay signal, mean of three wells (Fig. 7a): 0.2495
Column suffix _10, reading M5
  Th-T assay signal, mean of three wells (Fig. 7a): 0.2748
Column suffix _10, reading M6
  Th-T assay signal, mean of three wells (Fig. 7a): 0.3168
Column suffix _10, reading M7
  Th-T assay signal, mean of three wells (Fig. 7a): 0.3327
Column suffix _10, reading M8
  Th-T assay signal, mean of three wells (Fig. 7a): 0.3584
Column suffix _10, reading M9
  Th-T assay signal, mean of three wells (Fig. 7a): 0.3937
Column suffix _10, reading M10
  Th-T assay signal, mean of three wells (Fig. 7a): 0.4248
Column suffix _10, reading M11
  Th-T assay signal, mean of three wells (Fig. 7a): 0.4498
Column suffix _10, reading M12
  Th-T assay signal, mean of three wells (Fig. 7a): 0.5064
Column suffix _10, reading M13
  Th-T assay signal, mean of three wells (Fig. 7a): 0.6552
Column suffix _10, reading M14
  Th-T assay signal, mean of three wells (Fig. 7a): 0.8811
Column suffix _10, reading M15
  Th-T assay signal, mean of three wells (Fig. 7a): 1.163
Column suffix _10, reading M16
  Th-T assay signal, mean of three wells (Fig. 7a): 1.433
Column suffix _10, reading M17
  Th-T assay signal, mean of three wells (Fig. 7a): 1.668
Column suffix _10, reading M18
  Th-T assay signal, mean of three wells (Fig. 7a): 1.846
Column suffix _10, reading M85
  Fig. 7a Th-T reading, mean of three wells: 2.79
Column suffix _10, reading M86
  Fig. 7a Th-T reading, mean of three wells: 2.788
Column suffix _10, reading M87
  Fig. 7a Th-T reading, mean of three wells: 2.811
Column suffix _10, reading M88
  Fig. 7a Th-T reading, mean of three wells: 2.833
Column suffix _10, reading M89
  Fig. 7a Th-T reading, mean of three wells: 2.856
Column suffix _10, reading M90
  Fig. 7a Th-T reading, mean of three wells: 2.853
Column suffix _10, reading M91
  Fig. 7a Th-T reading, mean of three wells: 2.848
Column suffix _10, reading M92
  Fig. 7a Th-T reading, mean of three wells: 2.836
Column suffix _10, reading M93
  Fig. 7a Th-T reading, mean of three wells: 2.868
Column suffix _10, reading M94
  Fig. 7a Th-T reading, mean of three wells: 2.853
Column suffix _10, reading M95
  Fig. 7a Th-T reading, mean of three wells: 2.8555
Column suffix _10, reading M96
  Fig. 7a Th-T reading, mean of three wells: 2.819
Column suffix _10, reading M97
  Fig. 7a Th-T reading, mean of three wells: 2.823
Column suffix _10, reading M98
  Fig. 7a Th-T reading, mean of three wells: 2.843
Column suffix _10, reading M99
  Fig. 7a Th-T reading, mean of three wells: 2.862
Column suffix _10, reading M100
  Fig. 7a Th-T reading, mean of three wells: 2.849
Column suffix _10, reading M101
  Fig. 7a Th-T reading, mean of three wells: 2.83
Column suffix _10, reading M102
  Fig. 7a Th-T reading, mean of three wells: 2.84
Column suffix _10, reading M103
  Fig. 7a Th-T reading, mean of three wells: 2.843
Column suffix _10, reading M104
  Fig. 7a Th-T reading, mean of three wells: 2.878
Column suffix _10, reading M105
  Fig. 7a Th-T reading, mean of three wells: 2.894
Column suffix _10, reading M106
  Fig. 7a Th-T reading, mean of three wells: 2.859
Column suffix _20, measurement M19
  Th-T fluorescence, mean of three wells (Fig. 7a): 1.051
Column suffix _20, measurement M20
  Th-T fluorescence, mean of three wells (Fig. 7a): 1.16
Column suffix _20, measurement M21
  Th-T fluorescence, mean of three wells (Fig. 7a): 1.235
Column suffix _20, measurement M22
  Th-T fluorescence, mean of three wells (Fig. 7a): 1.279
Column suffix _20, measurement M23
  Th-T fluorescence, mean of three wells (Fig. 7a): 1.352
Column suffix _20, measurement M24
  Th-T fluorescence, mean of three wells (Fig. 7a): 1.3992
Column suffix _20, measurement M25
  Th-T fluorescence, mean of three wells (Fig. 7a): 1.478
Column suffix _20, measurement M26
  Th-T fluorescence, mean of three wells (Fig. 7a): 1.556
Column suffix _20, measurement M27
  Th-T fluorescence, mean of three wells (Fig. 7a): 1.595
Column suffix _20, measurement M28
  Th-T fluorescence, mean of three wells (Fig. 7a): 1.672
Column suffix _20, measurement M29
  Th-T fluorescence, mean of three wells (Fig. 7a): 1.711
Column suffix _20, reading M1
  Th-T assay signal, mean of three wells (Fig. 7a): 0.305
Column suffix _20, reading M2
  Th-T assay signal, mean of three wells (Fig. 7a): 0.2567
Column suffix _20, reading M3
  Th-T assay signal, mean of three wells (Fig. 7a): 0.2803
Column suffix _20, reading M4
  Th-T assay signal, mean of three wells (Fig. 7a): 0.2741
Column suffix _20, reading M5
  Th-T assay signal, mean of three wells (Fig. 7a): 0.2931
Column suffix _20, reading M6
  Th-T assay signal, mean of three wells (Fig. 7a): 0.3005
Column suffix _20, reading M7
  Th-T assay signal, mean of three wells (Fig. 7a): 0.3085
Column suffix _20, reading M8
  Th-T assay signal, mean of three wells (Fig. 7a): 0.3015
Column suffix _20, reading M9
  Th-T assay signal, mean of three wells (Fig. 7a): 0.3254
Column suffix _20, reading M10
  Th-T assay signal, mean of three wells (Fig. 7a): 0.3505
Column suffix _20, reading M11
  Th-T assay signal, mean of three wells (Fig. 7a): 0.3712
Column suffix _20, reading M12
  Th-T assay signal, mean of three wells (Fig. 7a): 0.4273
Column suffix _20, reading M13
  Th-T assay signal, mean of three wells (Fig. 7a): 0.4951
Column suffix _20, reading M14
  Th-T assay signal, mean of three wells (Fig. 7a): 0.5807
Column suffix _20, reading M15
  Th-T assay signal, mean of three wells (Fig. 7a): 0.6574
Column suffix _20, reading M16
  Th-T assay signal, mean of three wells (Fig. 7a): 0.7497
Column suffix _20, reading M17
  Th-T assay signal, mean of three wells (Fig. 7a): 0.8453
Column suffix _20, reading M18
  Th-T assay signal, mean of three wells (Fig. 7a): 0.9743
Column suffix _20, reading M85
  Fig. 7a Th-T reading, mean of three wells: 1.842
Column suffix _20, reading M86
  Fig. 7a Th-T reading, mean of three wells: 1.882
Column suffix _20, reading M87
  Fig. 7a Th-T reading, mean of three wells: 1.842
Column suffix _20, reading M88
  Fig. 7a Th-T reading, mean of three wells: 1.862
Column suffix _20, reading M89
  Fig. 7a Th-T reading, mean of three wells: 1.848
Column suffix _20, reading M90
  Fig. 7a Th-T reading, mean of three wells: 1.855
Column suffix _20, reading M91
  Fig. 7a Th-T reading, mean of three wells: 1.818
Column suffix _20, reading M92
  Fig. 7a Th-T reading, mean of three wells: 1.795
Column suffix _20, reading M93
  Fig. 7a Th-T reading, mean of three wells: 1.7999
Column suffix _20, reading M94
  Fig. 7a Th-T reading, mean of three wells: 1.805
Column suffix _20, reading M95
  Fig. 7a Th-T reading, mean of three wells: 1.783
Column suffix _20, reading M96
  Fig. 7a Th-T reading, mean of three wells: 1.793
Column suffix _20, reading M97
  Fig. 7a Th-T reading, mean of three wells: 1.78
Column suffix _20, reading M98
  Fig. 7a Th-T reading, mean of three wells: 1.799
Column suffix _20, reading M99
  Fig. 7a Th-T reading, mean of three wells: 1.789
Column suffix _20, reading M100
  Fig. 7a Th-T reading, mean of three wells: 1.781
